In patent US20260091026A1, “METHODS OF TREATING INFLAMMATORY DISEASES” (INTERLINE THERAPEUTICS, INC., priority 2023, published 2026) one finds Emax and IC50 data, which are given here for 15 compounds.

The structures appear in SMILES notation.

For experiment [1], the target named is T1, RIPK2 (KD)/XIAP (BIR2) (Homo sapiens, UniProt O43353).
T1 construct: made in house; host or cells: baculovirus-infected Sf9 cells
The experiment can be described thus: RIPK2-XIAP binding competition PPI assay (TR-FRET). As to conditions: for Emax: 50 nM of GSK583 = -100% activity, read-out: PPI Amax; for IC50: GST-RIPK2 / His-XIAP (BIR2)-avi, 120 min at 23° C. The source says:
The ability of selected compounds of Formula (I) to inhibit the binding of an His-XIAP (BIR2)-avi fusion protein to a GST-RIPK2 fusion protein was quantified employing the TR-FRET-based competition assay as described in the following paragraphs.
Recombinant fusion protein of N-terminal Glutathione-S-Transferase (GST) and a fragment of human RIPK2 (amino acids 1-310 of accession number 043353), expressed in baculovirus infected Sf9 cells, purified via glutathione affinity chromatography, was used as GST-RIPK2 fusion protein. Recombinant fusion protein of N-terminal 6xHistidine (His), a fragment of human XIAP (amino acids 152-231 of accession number P98170), and C-terminal avi tag, expressed in baculovirus infected Sf9 cells, purified via Nickel NTA affinity chromatography, was used as the His-XIAP (BIR2)-avi fusion protein.
For the assay, a working solution of 1 nM GST-RIPK2, 25 nM His-XIAP (BIR2)-avi, 6 nM Anti-His-XL665 […] (Revvity Catalogue No. 61HISXLB), and 0.5 nM Anti-GST-Tb(Revvity Catalogue No. 61GSTTLB) in 25 mM Tris-HCl 7.5, 0.5 mM ethylene glycol-bis(2-aminoethylether)-N,N,N′,N′-tetraacetic acid (EGTA), 10 mM magnesium chloride (MgCl2), 2.5 mM dithiothreitol (DTT), 0.01% (w/v) bovine serum albumin (BSA), 0.005% (w/v) Pluronic F-127 (Sigma), 0.5 mM sodium ortho-vanadate, 5 mM-Glycerophosphate disodium salt hydrate (BGP) was prepared. 50 nL of a 100-fold concentrated solution of each test compound in DMSO was dispensed via acoustic dispensing into a white low volume 384-well microtiter plate (Perkin Elmer Catalogue No. 6008280). Subsequently, 5 μL of the assay working solution were added.
The resulting mixture was incubated 120 min at 23° C. Subsequently, the amount of complex formed by the GST-RIPK2, XIAP (BIR2)-avi, Anti-His-XL665, and Anti-GST-Tb was evaluated by measurement of the resonance energy transfer from the Tb-cryptate to the XL665. Therefore, the fluorescence emissions at 520 nm and 665 nm after excitation at 337 nm were measured in a TR-FRET reader, e.g. a Pherastar FS(BMG Labtechnologies, Offenburg, Germany) or an Envision (PerkinElmer). The ratio of the emissions at 665 nm and at 520 nm was taken as the measure of the amount of the complex. The data were normalized (assay reaction without inhibitor=0% activity, 50 nM of GSK583=−100% activity).
(In TR-FRET formats the signal depends on donor and acceptor labels being close together.)

Experiment [2] concerns THP1-Dual cells, NF-κB pathway (SEAP). The experiment can be described thus: THP-1 Dual cell SEAP assay (L18-MDP stimulated). As to conditions: Homo sapiens, 10 ng/mL L18-MDP, 20-24 h, SEAP readout, read-out: IFNγ THP1 IC50. Type of experiment: cell-based. Here is the method: THP1-Dual™ cells (InvivoGen Cat #thpd-nfis) allow simultaneous assessment of the NF-κB pathway, by monitoring the activity of secreted embryonic alkaline phosphatase (SEAP) as well as the IRF pathway, by assessing the activity of a secreted luciferase (Lucia). Cells were cultured according to manufacturers' recommendations. For the assay, cell concentration was adjusted to 7.14×10^5 cells/mL in assay media (RPMI 1640, 2 mM L-Glutamine, 25 mM HEPES, 10% fetal bovine serum (heat-inactivated for 30 min at 56° C.), Pen-Strep (100 U/mL)) and 35 μL of cell suspension (˜25,000 cells) per well were added to a flat bottom 384-well plate (white opaque). Plate was centrifuged at 300 g for 2 min, compounds were added in serial dilution series according to the plate layout (volumes ˜500 nL-0.0152 nL) and plate was incubated at 37° C. in 5% CO2 for 30 min. Using assay media, a L18-MDP stock solution, that results in a final concentration of 10 ng/mL L18-MDP in each well when adding 15 μL to each well, was prepared. 15 μL of L18-MDP stock solution was added to each well, while 15 μL of assay media was added to the negative control wells. Plates were subsequently incubated at 37° C. in 5% CO2 overnight (20-24 h).
For the SEAP assay: without disturbing the cells at the bottom of the well, 15 μL supernatant was transferred to a clear 384-well flat bottom plate and 35 μL QUANTI-Blue Solution per well was added. Following a 2 h incubation at 37° C., the optical density (OD) was measured at 620-655 nm using a microplate reader (PheraStar FS microplate reader with protocol for OD 620-655 nm).
Values of media-only wells were subtracted and % inhibition for each compound concentration relative to the DMSO/L18-MDP-treated controls was calculated. Inhibition values+/−SD were fitted by non-linear regression using Prism software (GraphPad PRISM Software) to calculate IC50 values.

T1 sequence (O43353 1-310): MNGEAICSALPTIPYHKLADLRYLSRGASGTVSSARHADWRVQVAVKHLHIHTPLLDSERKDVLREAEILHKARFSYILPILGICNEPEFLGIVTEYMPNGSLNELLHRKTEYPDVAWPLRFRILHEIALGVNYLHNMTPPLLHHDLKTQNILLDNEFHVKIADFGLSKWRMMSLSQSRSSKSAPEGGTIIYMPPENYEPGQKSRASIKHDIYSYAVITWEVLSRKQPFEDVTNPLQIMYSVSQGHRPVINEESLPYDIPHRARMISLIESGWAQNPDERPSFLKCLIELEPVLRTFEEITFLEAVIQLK

Broadly, the IC50 is the point on the concentration scale where inhibition reaches its midpoint. In the case of `COc1cc2ncc(-c3cc(C(=O)NCc4cnn5ccccc45)n(C)n3)n2cc1S(=O)(=O)C(C)(C)C` [Example 17, 3-(6-(tert-butylsulfonyl)-7-methoxyimidazo[1,2-a]pyridin-3-yl)-1-methyl-N-(pyrazolo[1,5-a]pyridin-3-ylmethyl)-1H-pyrazole-5-carboxamide], in experiment [1], the Emax is 55 to 80% and the IC50 was more than 1000 nM. Moreover, in experiment [2], the IC50 was more than 2500 nM.
For `COc1cc2ncc(-c3cc(C(=O)NCc4n[nH]c5cccnc45)n(C)n3)n2cc1S(=O)(=O)C(C)(C)C` [Example 18, N-((1H-pyrazolo[4,3-b]pyridin-3-yl)methyl)-3-(6-(tert-butylsulfonyl)-7-methoxyimidazo[1,2-a]pyridin-3-yl)-1-methyl-1H-pyrazole-5-carboxamide], in that order: not below 80%, 10 to 100 nM and 500 to 2500 nM.
For `COc1cc2ncc(-c3cc(C(=O)NCc4n[nH]c5cccc(F)c45)n(C)n3)n2cc1S(=O)(=O)C(C)(C)C` [Example 19, 3-(6-(tert-butylsulfonyl)-7-methoxyimidazo[1,2-a]pyridin-3-yl)-N-((4-fluoro-1H-indazol-3-yl)methyl)-1-methyl-1H-pyrazole-5-carboxamide], in that order: not below 80%, less than 10 nM and 100 to 500 nM.
For `COc1cc2ncc(-c3cc(C(=O)NCc4cccc5ccnn45)n(C)n3)n2cc1S(=O)(=O)C(C)(C)C` [Example 20, 3-(6-(tert-butylsulfonyl)-7-methoxyimidazo[1,2-a]pyridin-3-yl)-1-methyl-N-(pyrazolo[1,5-a]pyridin-7-ylmethyl)-1H-pyrazole-5-carboxamide], in that order: not below 80%, 100 to 1000 nM and more than 2500 nM.
Consider `COc1cc2ncc(-c3cc(C(=O)NCc4cccn5ccnc45)n(C)n3)n2cc1S(=O)(=O)C(C)(C)C` [Example 21, 3-(6-(tert-butylsulfonyl)-7-methoxyimidazo[1,2-a]pyridin-3-yl)-N-(imidazo[1,2-a]pyridin-8-ylmethyl)-1-methyl-1H-pyrazole-5-carboxamide], for which, in experiment [1], the Emax was not below 80% and the IC50 fell in the range of 100 to 1000 nM. Moreover, the IC50 in experiment [2] was more than 2500 nM.
On to `COc1cc2ncc(-c3cc(C(=O)NCc4cn5ccccc5n4)n(C)n3)n2cc1S(=O)(=O)C(C)(C)C` [Example 22, 3-(6-(tert-butylsulfonyl)-7-methoxyimidazo[1,2-a]pyridin-3-yl)-N-(imidazo[1,2-a]pyridin-2-ylmethyl)-1-methyl-1H-pyrazole-5-carboxamide], for which, in experiment [1], the Emax is not above 30% and the IC50 was more than 1000 nM. In addition, the IC50 in experiment [2] was more than 2500 nM.
Regarding `COc1cc2ncc(-c3cc(C(=O)NCc4cc5ccccn5n4)n(C)n3)n2cc1S(=O)(=O)C(C)(C)C` [Example 23, 3-(6-(tert-butylsulfonyl)-7-methoxyimidazo[1,2-a]pyridin-3-yl)-1-methyl-N-(pyrazolo[1,5-a]pyridin-2-ylmethyl)-1H-pyrazole-5-carboxamide], in experiment [1], the Emax is not above 30% and the IC50 is more than 1000 nM. Moreover, in experiment [2], the IC50 fell in the range of 500 to 2500 nM.
For `COc1cc2ncc(-c3cc(C(=O)NCc4ccn(C)n4)n(C)n3)n2cc1S(=O)(=O)C(C)(C)C` [Example 24, 3-(6-(tert-butylsulfonyl)-7-methoxyimidazo[1,2-a]pyridin-3-yl)-1-methyl-N-((1-methyl-1H-pyrazol-3-yl)methyl)-1H-pyrazole-5-carboxamide], in that order: not below 80%, 100 to 1000 nM and 500 to 2500 nM.
Turning to `COc1cc2ncc(-c3cc(C(=O)NCc4cnn(C)c4)n(C)n3)n2cc1S(=O)(=O)C(C)(C)C` [Example 25, 3-(6-(tert-butylsulfonyl)-7-methoxyimidazo[1,2-a]pyridin-3-yl)-1-methyl-N-((1-methyl-1H-pyrazol-4-yl)methyl)-1H-pyrazole-5-carboxamide], in experiment [1], the Emax was not above 30% and the IC50 was more than 1000 nM. Moreover, in experiment [2], the 50% inhibitory concentration (IC50) is more than 2500 nM.
In the same order, the values of `COc1cc2ncc(-c3cc(C(=O)NCc4ccccn4)n(C)n3)n2cc1S(=O)(=O)C(C)(C)C` [Example 26, 3-(6-(tert-butylsulfonyl)-7-methoxyimidazo[1,2-a]pyridin-3-yl)-1-methyl-N-(pyridin-2-ylmethyl)-1H-pyrazole-5-carboxamide] are not below 80%, 100 to 1000 nM and 500 to 2500 nM.
For `COc1cc2ncc(-c3cc(C(=O)NCc4cccnc4)n(C)n3)n2cc1S(=O)(=O)C(C)(C)C` [Example 27, 3-(6-(tert-butylsulfonyl)-7-methoxyimidazo[1,2-a]pyridin-3-yl)-1-methyl-N-(pyridin-3-ylmethyl)-1H-pyrazole-5-carboxamide], in that order: 55 to 80%, more than 1000 nM and more than 2500 nM.
For `COc1cc2ncc(-c3cc(C(=O)NCc4ccccc4)n(C)n3)n2cc1S(=O)(=O)C(C)(C)C` [Example 28, N-benzyl-3-(6-(tert-butylsulfonyl)-7-methoxyimidazo[1,2-a]pyridin-3-yl)-1-methyl-1H-pyrazole-5-carboxamide], in that order: not below 80%, 100 to 1000 nM and 500 to 2500 nM.
`COc1cc2ncc(-c3cc(C(=O)NCc4ccncc4)n(C)n3)n2cc1S(=O)(=O)C(C)(C)C` [Example 29, 3-(6-(tert-butylsulfonyl)-7-methoxyimidazo[1,2-a]pyridin-3-yl)-1-methyl-N-(pyridin-4-ylmethyl)-1H-pyrazole-5-carboxamide]: in experiment [1], the Emax is not above 30% and the IC50 is more than 1000 nM. In addition, the IC50 in experiment [2] was more than 2500 nM.
Regarding `C[C@@H](NC(=O)c1cc(-c2cnc3cc(OCCO)c(S(=O)(=O)C(C)(C)C)cn23)nn1C)c1ccccc1` [Example 32, (R)-3-(6-(tert-butylsulfonyl)-7-(2-hydroxyethoxy)imidazo[1,2-a]pyridin-3-yl)-1-methyl-N-(1-phenylethyl)-1H-pyrazole-5-carboxamide], in experiment [1], the Emax is not below 80%. Also, the half-maximal inhibitory concentration (IC50) was less than 10 nM in experiment [1] and less than 100 nM in experiment [2].
In the same order, the values of `COc1cc2ncc(-c3cc(C(=O)N[C@H](C)C4CC4)n(C)n3)n2cc1S(=O)(=O)C(C)(C)C` [Example 35, (R)-3-(6-(tert-butylsulfonyl)-7-methoxyimidazo[1,2-a]pyridin-3-yl)-N-(1-cyclopropylethyl)-1-methyl-1H-pyrazole-5-carboxamide] are 30 to 55%, more than 1000 nM and more than 2500 nM.
